Experimental data reported in patent US8575376B2, “Steroide anionic compounds, method of their production, usage and pharmaceutical preparation involving them” (Ustav Organicke Chemie A Biochemie Akademie Ved Ceske …, priority 2009, dated 2013).

Tests used:
[1] = molecular target: T1, recombinant NR1/NR2B receptors (Rattus norvegicus, UniProt P35439+Q00960); assay: Patch-clamp, inhibition of glutamate responses of recombinant NMDA receptors in transfected HEK293 cells; assay type: cell-based
T1 construct: expressed in transfected cells; host or cells: HEK293 cells (ATCC CRL1573)
T1 sequence (Q00960 27-1482, other chains not shown): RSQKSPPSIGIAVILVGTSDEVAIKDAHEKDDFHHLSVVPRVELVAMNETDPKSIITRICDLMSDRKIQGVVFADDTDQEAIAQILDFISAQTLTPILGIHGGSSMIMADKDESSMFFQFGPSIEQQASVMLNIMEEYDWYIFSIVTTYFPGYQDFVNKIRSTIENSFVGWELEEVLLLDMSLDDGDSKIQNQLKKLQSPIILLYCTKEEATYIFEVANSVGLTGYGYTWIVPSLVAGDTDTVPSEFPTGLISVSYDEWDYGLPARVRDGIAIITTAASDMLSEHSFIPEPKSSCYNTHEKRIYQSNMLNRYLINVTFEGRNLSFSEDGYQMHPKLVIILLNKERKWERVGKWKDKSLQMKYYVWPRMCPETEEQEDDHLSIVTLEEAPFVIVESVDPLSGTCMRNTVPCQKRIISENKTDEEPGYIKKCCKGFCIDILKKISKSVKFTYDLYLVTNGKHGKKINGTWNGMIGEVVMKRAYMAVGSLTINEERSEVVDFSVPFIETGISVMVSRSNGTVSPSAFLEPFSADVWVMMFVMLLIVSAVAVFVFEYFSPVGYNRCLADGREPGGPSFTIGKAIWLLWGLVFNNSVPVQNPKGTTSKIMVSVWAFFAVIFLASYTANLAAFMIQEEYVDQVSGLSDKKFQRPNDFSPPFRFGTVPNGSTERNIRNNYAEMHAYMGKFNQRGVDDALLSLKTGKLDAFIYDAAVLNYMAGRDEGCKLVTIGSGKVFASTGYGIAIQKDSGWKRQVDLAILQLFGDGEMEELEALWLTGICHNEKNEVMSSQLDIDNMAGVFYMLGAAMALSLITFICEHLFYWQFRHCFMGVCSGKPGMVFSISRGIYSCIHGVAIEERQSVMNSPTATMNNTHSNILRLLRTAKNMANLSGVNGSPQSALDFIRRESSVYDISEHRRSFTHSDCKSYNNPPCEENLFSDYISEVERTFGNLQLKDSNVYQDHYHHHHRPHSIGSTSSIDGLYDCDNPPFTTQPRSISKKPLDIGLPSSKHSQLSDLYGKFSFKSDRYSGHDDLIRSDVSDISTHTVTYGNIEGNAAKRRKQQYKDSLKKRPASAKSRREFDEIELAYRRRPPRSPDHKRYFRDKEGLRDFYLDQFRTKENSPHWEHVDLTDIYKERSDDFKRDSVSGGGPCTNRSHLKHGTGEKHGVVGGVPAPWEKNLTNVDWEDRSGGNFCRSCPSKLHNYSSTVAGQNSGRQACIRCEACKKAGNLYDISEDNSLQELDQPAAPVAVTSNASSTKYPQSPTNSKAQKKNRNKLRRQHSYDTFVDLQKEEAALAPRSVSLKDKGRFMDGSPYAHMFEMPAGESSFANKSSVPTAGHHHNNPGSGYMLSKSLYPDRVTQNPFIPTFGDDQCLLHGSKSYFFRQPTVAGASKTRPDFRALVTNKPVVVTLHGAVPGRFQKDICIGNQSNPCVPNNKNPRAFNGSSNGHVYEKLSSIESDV

rats [2] = assay: Spontaneous locomotor activity in the open-field test; assay type: in vivo, rat; details: 1 and 10 mg/kg s.c., 30 min before, 30 min session
Protocol: Animals were tracked with Ethovision Pro system (Noldus, Netherlands) and total path traveled during this session was evaluated. The compound from Example 9 was applied subcutaneously (dissolved in cyclodextrin) 30 min prior to behavioral observations at doses 1 mg/kg a 10 mg/kg; control animals were injected with saline.

rats [3] = assay: Prepulse inhibition in MK-801 animal model of schizophrenia; assay type: in vivo, rat
Protocol: The effect of i.p. administration of the compound from example 9 at doses of 0.1 and 1 mg/kg on sensorimotor gating in prepulse inhibition (PPI) test was evaluated. All testing occurred within the startle chamber (SR-LAB, San Diego Instruments, USA), which consisted of a clear Plexiglas cylinder (8.2 cm diameter, 10×20 cm) that rested on a piezoelectric accelerometer inside a ventilated and illuminated chamber. The piezoelectric accelerometer detected and transduced motion within the cylinder. A high frequency loudspeaker inside the chamber (24 cm above the animal) produced both a background noise of 62 dB and the acoustic stimuli. All rats were initially tested in a short session (5 min acclimatization period plus 5 single stimuli; 120 dB strong) 2 days before the experiment.
The background noise (62 dB) was presented alone for 5 min (acclimatization period) and then continued throughout the session. […] The PPI was measured as a difference between the average responses to the single pulse and prepulse-pulse trials, and was expressed as a percent of the PPI [100−(mean response for prepulse-pulse trials/startle response for single pulse trials)×100]. […]

rats [4] = assay: AAPA task after MK-801 (animal model of schizophrenia); assay type: in vivo, rat; details: for locomotion activity in AAPA (total distance): vs control
Protocol: The effect of compound from example 9 application on changes in behavior and locomotor activity in animal model of schizophrenia was monitored. Schizophrenia-like behavior in rats was induced by dizocilpine (MK-801) administration. […] was administered in doses of 0.001 mg/kg, 0.01 mg/kg, 0.1 mg/kg and 10 mg/kg. Spatial orientation and cognitive function of rats were assessed in active allothetic place avoidance task (AAPA).
Schizophrenia-like behaviour in rats was induced by administration of dizocilpine (MK-801). Spatial navigation and cognitive functions of rats were assessed in active alothetic place avoidance task (AAPA). In addition, this task allows simultaneous assessment of potential differences in locomotory activity. The AAPA task requires rats moving on a continuously rotating (1 rpm) smooth metallic circular arena to avoid an unmarked place defined in the coordinates of the experimental room. The avoidance is reinforced by a mild electric foot-shock administered automatically upon entering the to-be avoided place.
The AAPA task is highly dependent on hippocampal function, since even a unilateral inactivation of thstructure hippocampus impairs this behaviour. Animals have to actively and repeatedly move away from the to-be-avoided place otherwise they are brought there by the arena rotation. Each AAPA session lasts 20 min and 4 sessions were conducted over 4 consecutive days.
Rats received 0.1 mg/kg MK-801 alone or co-administered with the compound from example 9 (dissolved in β-cyclodextrine) in doses of 0.001 mg/kg, 0.01 mg/kg, 0.1 mg/kg, and 10 mg/kg. Control animals received saline. […] It is for a common animal model of schizophrenia-like behaviour.
The results are shown in FIGS. 21-23, where means and standard errors of the mean (S.E.M.) are represented for individual sessions. Statistic analysis was for better clarity stated always for the last session, when an asymptotic level of performance in control animals was reached.

rats [5] = assay: Forced swim test; assay type: in vivo, rat; details: 1 mg/kg i.p., 60 min prior, p<0.001
Protocol: Forced swim test is an experimental model of depression and excessive stress used in laboratory rodents. Rats were randomly assigned to two groups of seven animals each. Control group received an injection of cyclodextrine (i.p.) 60 min. prior to experiment, while experimental group was injected i.p. with the compound from example 9 in a dose of 1 mg/kg 60 minutes prior to the experiment. Rats were forced to swim by being individually placed into a bucket (30 cm diameter, 28 cm height) containing water (25° C.). Immobility (floating) in the water is interpreted as a state of despair when the animals realize that an escape is impossible. Immobility was defined as floating (as opposed to active swimming) with minimal effort required for keeping the head above water. All animals received a single 30-minute trial and their behaviour was monitored by an experimenter. The trial was divided into six 5-minute intervals and floating of at least 30 second duration within each interval was recorded by the experimenter.

Neuropathic pain model = assay type: in vivo; details: no data shown

CC(=O)[C@H]1CC[C@H]2[C@@H]3CC[C@@H]4C[C@H](OC(=O)[C@@H](N)CCC(=O)O)CC[C@]4(C)[C@H]3CC[C@]12C [Example 9, 20-Oxo-5β-pregnan-3α-yl L-glutamyl 1-ester]
IC50 ([1]; calculated from relative inhibition with Hill's coefficient 1.2): 73 µM | Relative inhibition effect (%) ([1]; responses to 1 mM glutamate, -60 mV, HEK293 NR1-1a/NR2B, steroid 50, 100 or 200 μM): 77.1 ± 5.2% | total distance traveled in the open-field session (spontaneous locomotor activity) (rats [2]): did not significantly alter the spontaneous locomotor activity | prepulse inhibition deficit induced by MK-801 (rats [3]; Example 9 0.1 or 1 mg/kg i.p. co-administered with MK-801 0.1 mg/kg): blocked the exacerbating effect of MK-801 | prepulse inhibition (rats [3]; Example 9 alone, 0.1 and 1 mg/kg i.p.): had no influence on prepulse inhibition | MK-801-induced deficit in number of errors in AAPA (rats [4]; Example 9 0.001, 0.01, 0.1 and 10 mg/kg + MK-801 0.1 mg/kg): reversed this deficits at all doses | locomotion activity in AAPA (total distance) (rats [4]; Example 9 0.001, 0.01 and 0.1 mg/kg + MK-801 0.1 mg/kg): showed neither increase nor decrease of locomotion activity | MK-801-induced deficit in maximum time of avoidance in AAPA (rats [4]; Example 9 0.001, 0.01 and 10 mg/kg + MK-801 0.1 mg/kg): reversed this deficit | locomotion activity in AAPA (total distance) (rats [4]; Example 9 10 mg/kg + MK-801 0.1 mg/kg): increased locomotor activity compared to controls | time spent floating / time to immobility in forced swim test (rats [5]): spent significantly less time by floating, in comparison to controls | action on the neuropathic pain model (Neuropathic pain model): Beneficial action
